Experimental data from publication PMC9090415, “Discovery of small molecule inhibitors of Plasmodium falciparum apicoplast DNA polymerase” (Journal of Enzyme Inhibition and Medicinal Chemistry, 2022).

Molecular target: P. falciparum apicoplast DNA polymerase (Pf-apPOL) (Plasmodium falciparum, UniProt Q8ILY1)
Assay: Fluorescence-based high-throughput DNA polymerase assay (molecular beacon), primary screen and dose-response
Format: biochemical
Method: The HT assay employs a molecular beacon, a stem-loop DNA template with a Cy3 dye and the Black Hole Quencher on the 3′ and 5′ ends of the DNA, respectively. Pf-apPOL concentration is based on a calculated absorptivity of ε280 = 56750 M^−1 cm^−1. Reactions were carried out at 25 °C, using Corning 3575 […] (well-volume, 20 µL). Assays testing for compound inhibition composed of reaction buffer (pH 7.9 in 50 mM potassium acetate, 20 mM Tris-acetate and 10 mM magnesium acetate), Pf-apPOL (20 nM), DNA substrate (20 nM), dNTPs (6 µM), and compound (10 µM in DMSO). The DNA and nucleotide substrates (dNTPs) were at concentrations of 20 nM and 6 µM, respectively, in the assay. Pf-apPOL was incubated in the reaction buffer with dNTPs and the compound of interest (10 µM, in the assay) at 25 °C for 10 min. The DNA substrate was then added and the reaction was allowed to proceed for 90 min at 25 °C.
Each assay plate contained 16 negative controls (no Pf-apPOL, DMSO present) and 16 positive controls (Pf-apPOL present, no DMSO). The fluorescence of each well was determined using a BioTek Synergy Neo fluorescence plate reader using excitation and emission wavelengths of 555 and 570 nm, respectively.
In the above, Min is the average of fluorescence emission of the negative controls (substrate only), Max the average fluorescence emission from the positive controls (enzyme + substrate), and Test the emission from the assays in the presence of compounds (enzyme + compound + substrates). […] […] The IC50 of each compound was determined using Equation (2): (2) IC50= Vmax/(1+ (I/IC50)^n)
In the above, n measures cooperativity, with n > 1 indicating synergistic binding of more than a single molecule of the compound.
To identify apPOL inhibitors we utilised our previously developed high-throughput DNA polymerase assay. The HT assay is based on a molecular beacon DNA template that forms a stem-loop with a Cy3 dye and the Black Hole Quencher on the 3′ and 5′ ends of the DNA, respectively. DNA polymerase activity extends an annealed primer through the stem region, displacing the fluorophore from the quencher, thereby increasing its fluorescence (Figure 1(A)). The assay accurately recapitulates the kinetic behaviour of apPOL, as measured through more conventional low-throughput gel-based assays. The Z′ factor for the assay described here was 0.9 across all plates (data not shown).
Figure 1. High-throughput screening. (A) The fluorescent-based DNA polymerase assay used to screen the compound libraries. The DNA template strand is a hairpin loop with a primer annealed to the loop. The 3’ end of the primer is 11 bases away from the 6 bp duplex. Strand displacement activity of the DNA polymerase separates the Cy3 dye from the Black hole quencher leading to an increase in fluorescent signal. (B) The high-throughput assay workflow. The DNA polymerase is incubated with […] compound for 10 min prior to addition of the hairpin substrate. The reaction is quenched at 3 different time points and the fluorescent signal is measured and % inhibition is determined using the provided equation.

Sequence of P. falciparum apicoplast DNA polymerase (Pf-apPOL) (Q8ILY1 entry or part of it): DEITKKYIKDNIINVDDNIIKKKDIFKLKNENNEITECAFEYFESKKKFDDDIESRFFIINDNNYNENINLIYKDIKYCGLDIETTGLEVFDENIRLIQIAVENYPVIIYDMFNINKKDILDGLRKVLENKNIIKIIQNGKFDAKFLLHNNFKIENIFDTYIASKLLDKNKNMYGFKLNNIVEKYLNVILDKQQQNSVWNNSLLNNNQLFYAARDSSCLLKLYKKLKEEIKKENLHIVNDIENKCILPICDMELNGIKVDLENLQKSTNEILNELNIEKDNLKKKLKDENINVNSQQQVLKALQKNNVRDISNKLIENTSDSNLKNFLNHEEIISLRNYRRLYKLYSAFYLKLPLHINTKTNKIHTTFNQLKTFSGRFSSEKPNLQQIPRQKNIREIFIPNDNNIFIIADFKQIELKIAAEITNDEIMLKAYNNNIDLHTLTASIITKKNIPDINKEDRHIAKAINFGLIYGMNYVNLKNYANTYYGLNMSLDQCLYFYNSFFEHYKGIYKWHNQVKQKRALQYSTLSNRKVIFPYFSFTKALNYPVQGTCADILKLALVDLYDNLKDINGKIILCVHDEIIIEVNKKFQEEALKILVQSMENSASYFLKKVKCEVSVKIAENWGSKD

## O=C1N/C(=N/c2ccccc2Cl)S/C1=C/c1ccc([N+](=O)[O-])o1 [KU0054524]
DRC-1; 10'; concentration 2.5
  % inhibition Apo pol 10': 7.564%
DRC-1; 10'; concentration 5
  % inhibition Apo pol 10': 28.3365%
DRC-1; 10'; concentration 10
  % inhibition Apo pol 10': 42.7276%
DRC-1; 10'; concentration 20
  % inhibition Apo pol 10': 56.2802%
DRC-1; 10'; concentration 40
  % inhibition Apo pol 10': 80.0033%
DRC-1; 10'; concentration 80
  % inhibition Apo pol 10': 85.9961%
DRC-1; 90'; concentration 2.5
  % inhibition Apol 90': 2.857%
DRC-1; 90'; concentration 5
  % inhibition Apol 90': 16.2843%
DRC-1; 90'; concentration 10
  % inhibition Apol 90': 26.4398%
DRC-1; 90'; concentration 20
  % inhibition Apol 90': 38.2807%
DRC-1; 90'; concentration 40
  % inhibition Apol 90': 70.6237%
DRC-1; 90'; concentration 80
  % inhibition Apol 90': 84.7542%
DRC-1; 180'; concentration 2.5
  % inhibition apPOL 180': -2.619%
DRC-1; 180'; concentration 5
  % inhibition apPOL 180': 9.438%
DRC-1; 180'; concentration 10
  % inhibition apPOL 180': 15.4402%
DRC-1; 180'; concentration 20
  % inhibition apPOL 180': 23.638%
DRC-1; 180'; concentration 40
  % inhibition apPOL 180': 57.9424%
DRC-1; 180'; concentration 80
  % inhibition apPOL 180': 81.189%
DRC-2, 5', concentration 10 (unit not given)
  % inhibition Apo pol 5': 42%
DRC-2, 40', concentration 40 (unit not given)
  % inhibition Apol 40': 58%
DRC-2, 90', concentration 10 (unit not given)
  % inhibition ApPOL 90': 42%
DRC-2, 180', concentration 10 (unit not given)
  % inhibition apPOL 180': 31%
DRC-2, 180', concentration 20 (unit not given)
  % inhibition apPOL 180': 58%
DRC-2; 5'; concentration 2.5
  % inhibition Apo pol 5': 17%
DRC-2; 5'; concentration 5
  % inhibition Apo pol 5': 22%
DRC-2; 5'; concentration 10
  % inhibition Apo pol 5': 42%
DRC-2; 5'; concentration 20
  % inhibition Apo pol 5': 46%
DRC-2; 5'; concentration 40
  % inhibition Apo pol 5': 25%
DRC-2; 5'; concentration 80
  % inhibition Apo pol 5': 31%
DRC-2; 5'; concentration 80 (unit not given)
  % inhibition Apo pol 5': 31%
DRC-2; 40'; concentration 2.5
  % inhibition Apol 40': 14%
DRC-2; 40'; concentration 5
  % inhibition Apol 40': 21%
DRC-2; 40'; concentration 10
  % inhibition Apol 40': 45%
DRC-2; 40'; concentration 20
  % inhibition Apol 40': 62%
DRC-2; 40'; concentration 40
  % inhibition Apol 40': 58%
DRC-2; 40'; concentration 80
  % inhibition Apol 40': 61%
DRC-2; 90'; concentration 2.5
  % inhibition ApPOL 90': 11%
DRC-2; 90'; concentration 5
  % inhibition ApPOL 90': 16%
DRC-2; 90'; concentration 10
  % inhibition ApPOL 90': 42%
DRC-2; 90'; concentration 20
  % inhibition ApPOL 90': 63%
DRC-2; 90'; concentration 40
  % inhibition ApPOL 90': 65%
DRC-2; 90'; concentration 80
  % inhibition ApPOL 90': 68%
DRC-2; 180'; concentration 2.5
  % inhibition apPOL 180': 7%
DRC-2; 180'; concentration 5
  % inhibition apPOL 180': 8%
DRC-2; 180'; concentration 10
  % inhibition apPOL 180': 31%
DRC-2; 180'; concentration 20
  % inhibition apPOL 180': 58%
DRC-2; 180'; concentration 40
  % inhibition apPOL 180': 67%
DRC-2; 180'; concentration 80
  % inhibition apPOL 180': 73%
Primary screen value of the 186 hits; unit not given; 90 min, 10 µM
  DNA Pol: 44
Primary screen value, head "DNA Pol", unit not given; 90 min, 10 µM
  DNA Pol: 44

## O=C(Cn1ccc2c(=O)[nH]ccc21)Nc1ccccc1Cl [Molecule 19]
Supplemental file 2, sheet IC50 nontoxic compounds; Pf-apPOL
  IC50: 6.87 µM

## COc1ccccc1CCC(=O)N1CCc2c(nc3cc(-c4ccccc4)[nH]n3c2=O)C1 [Molecule 7, COc1ccccc1CCC(=O)N1CCc2c(C1)nc1n(c2=O)[nH]c(c1)c1ccccc1]
'DNA Pol'; screening value, unit not given; 90 min, 10 µM
  DNA Pol: 40
DRC-1; 10'; concentration 2.5
  % inhibition Apo pol 10': 2.75%
DRC-1; 10'; concentration 5
  % inhibition Apo pol 10': 18%
DRC-1; 10'; concentration 10
  % inhibition Apo pol 10': 67%
DRC-1; 10'; concentration 20
  % inhibition Apo pol 10': 82%
DRC-1; 10'; concentration 40
  % inhibition Apo pol 10': 78%
DRC-1; 10'; concentration 80
  % inhibition Apo pol 10': 59%
DRC-1; 90'; concentration 2.5
  % inhibition Apol 90': 0.0541%
DRC-1; 90'; concentration 5
  % inhibition Apol 90': 9%
DRC-1; 90'; concentration 10
  % inhibition Apol 90': 54%
DRC-1; 90'; concentration 20
  % inhibition Apol 90': 73%
DRC-1; 90'; concentration 40
  % inhibition Apol 90': 72%
DRC-1; 90'; concentration 80
  % inhibition Apol 90': 63%
DRC-1; 180'; concentration 2.5
  % inhibition apPOL 180': -3.58%
DRC-1; 180'; concentration 5
  % inhibition apPOL 180': 1.16%
DRC-1; 180'; concentration 10
  % inhibition apPOL 180': 38%
DRC-1; 180'; concentration 20
  % inhibition apPOL 180': 59%
DRC-1; 180'; concentration 40
  % inhibition apPOL 180': 58%
DRC-1; 180'; concentration 80
  % inhibition apPOL 180': 49%
DRC-2, 5', concentration 2.5
  % inhibition Apo pol 5': 6%
DRC-2, 5', concentration 5
  % inhibition Apo pol 5': 26%
DRC-2, 5', concentration 10
  % inhibition Apo pol 5': 48%
DRC-2, 5', concentration 20
  % inhibition Apo pol 5': 51%
DRC-2, 5', concentration 40
  % inhibition Apo pol 5': 44%
DRC-2, 5', concentration 80
  % inhibition Apo pol 5': 21%
DRC-2, 40', concentration 2.5
  % inhibition Apol 40': 5.58%
DRC-2, 40', concentration 5
  % inhibition Apol 40': 30%
DRC-2, 40', concentration 10
  % inhibition Apol 40': 57%
DRC-2, 40', concentration 20
  % inhibition Apol 40': 64%
DRC-2, 40', concentration 40
  % inhibition Apol 40': 61%
DRC-2, 40', concentration 80
  % inhibition Apol 40': 44%
DRC-2, 90', concentration 2.5
  % inhibition ApPOL 90': 5%
DRC-2, 90', concentration 5
  % inhibition ApPOL 90': 28%
DRC-2, 90', concentration 10
  % inhibition ApPOL 90': 57%
DRC-2, 90', concentration 20
  % inhibition ApPOL 90': 65%
DRC-2, 90', concentration 40
  % inhibition ApPOL 90': 62%
DRC-2, 90', concentration 80
  % inhibition ApPOL 90': 47%
DRC-2, 180', concentration 2.5
  % inhibition apPOL 180': 3%
DRC-2, 180', concentration 5
  % inhibition apPOL 180': 21%
DRC-2, 180', concentration 10
  % inhibition apPOL 180': 48%
DRC-2, 180', concentration 20
  % inhibition apPOL 180': 59%
DRC-2, 180', concentration 40
  % inhibition apPOL 180': 55%
DRC-2, 180', concentration 80
  % inhibition apPOL 180': 41%
Conc 5 (unit not given); 180'; DRC-2
  % inhibition apPOL 180': 21%
Conc 10 (unit not given); 5'; DRC-2
  % inhibition Apo pol 5': 48%
Conc 10 (unit not given); 40'; DRC-2
  % inhibition Apol 40': 57%
Conc 10 (unit not given); 90'; DRC-2
  % inhibition ApPOL 90': 57%
Conc 10 (unit not given); 180'; DRC-2
  % inhibition apPOL 180': 48%
Conc 20 (unit not given); 180'; DRC-2
  % inhibition apPOL 180': 59%
Conc 20 (unit not given); 180'; first dose-response set
  % inhibition apPOL 180': 59%
Conc 40 (unit not given); 5'; DRC-2
  % inhibition Apo pol 5': 44%
Conc 80 (unit not given); 5'; DRC-2
  % inhibition Apo pol 5': 21%
Conc 80 (unit not given); 10'; first dose-response set
  % inhibition Apo pol 10': 59%
Conc 80 (unit not given); 40'; DRC-2
  % inhibition Apol 40': 44%
Primary screen hit value, DNA Pol (186 hits); 90 min, 10 µM
  DNA Pol: 40
